From US12157741B2, “Macrocyclic inhibitors of DYRK1A” (DANA-FARBER CANCER INSTITUTE, INC., priority 2018, dated 2024)
Where two headings read alike, the source gives them in different places.

Legend:
Format in all cases: binding
various enzymes [1] = biological target: various enzymes (Homo sapiens, UniProt O14965); conditions: compound 1 uM
Description: (§1) Ambit profiling was conducted in accordance with the manufacturer's instructions.

various enzymes [2] = biological target: various enzymes (Homo sapiens, UniProt P21860); conditions: compound 1 uM
Description: as §1

various enzymes [3] = biological target: various enzymes (Homo sapiens, UniProt P21709); conditions: compound 1 uM
Description: as §1

various enzymes [4] = biological target: various enzymes (Homo sapiens, UniProt P43405); conditions: compound 1 uM
Description: as §1

various enzymes [5] = biological target: various enzymes (Homo sapiens, UniProt Q13131); conditions: compound 1 uM
Description: as §1

various enzymes [6] = biological target: various enzymes (Homo sapiens, UniProt Q96GD4); conditions: compound 1 uM
Description: as §1

various enzymes [7] = biological target: various enzymes (Homo sapiens, UniProt Q56UN5); conditions: compound 1 uM
Description: as §1

various enzymes [8] = biological target: various enzymes (Homo sapiens, UniProt P48736); conditions: compound 1 uM
Description: as §1

various enzymes [9] = biological target: various enzymes (Homo sapiens, UniProt Q9UEE5); conditions: compound 1 uM
Description: as §1

various enzymes [10] = biological target: various enzymes (Homo sapiens, UniProt P07948); conditions: compound 1 uM
Description: as §1

various enzymes [11] = biological target: various enzymes (Homo sapiens, UniProt P00519, E255K)
Description: as §1

various enzymes [12] = biological target: various enzymes (Homo sapiens, UniProt P37023); conditions: compound 1 uM
Description: as §1

various enzymes [13] = biological target: various enzymes (Homo sapiens, UniProt Q96D53); conditions: compound 1 uM
Description: as §1

various enzymes [14] = biological target: various enzymes (Homo sapiens, UniProt Q8IU85); conditions: compound 1 uM
Description: as §1

various enzymes [15] = biological target: various enzymes (Homo sapiens, UniProt P54753); conditions: compound 1 uM
Description: as §1

various enzymes [16] = biological target: various enzymes (Homo sapiens, UniProt P53355); conditions: compound 1 uM
Description: as §1

various enzymes [17] = biological target: T1, various enzymes (Homo sapiens, UniProt O43283); conditions: compound 1 uM
T1 sequence (O43283 1-966): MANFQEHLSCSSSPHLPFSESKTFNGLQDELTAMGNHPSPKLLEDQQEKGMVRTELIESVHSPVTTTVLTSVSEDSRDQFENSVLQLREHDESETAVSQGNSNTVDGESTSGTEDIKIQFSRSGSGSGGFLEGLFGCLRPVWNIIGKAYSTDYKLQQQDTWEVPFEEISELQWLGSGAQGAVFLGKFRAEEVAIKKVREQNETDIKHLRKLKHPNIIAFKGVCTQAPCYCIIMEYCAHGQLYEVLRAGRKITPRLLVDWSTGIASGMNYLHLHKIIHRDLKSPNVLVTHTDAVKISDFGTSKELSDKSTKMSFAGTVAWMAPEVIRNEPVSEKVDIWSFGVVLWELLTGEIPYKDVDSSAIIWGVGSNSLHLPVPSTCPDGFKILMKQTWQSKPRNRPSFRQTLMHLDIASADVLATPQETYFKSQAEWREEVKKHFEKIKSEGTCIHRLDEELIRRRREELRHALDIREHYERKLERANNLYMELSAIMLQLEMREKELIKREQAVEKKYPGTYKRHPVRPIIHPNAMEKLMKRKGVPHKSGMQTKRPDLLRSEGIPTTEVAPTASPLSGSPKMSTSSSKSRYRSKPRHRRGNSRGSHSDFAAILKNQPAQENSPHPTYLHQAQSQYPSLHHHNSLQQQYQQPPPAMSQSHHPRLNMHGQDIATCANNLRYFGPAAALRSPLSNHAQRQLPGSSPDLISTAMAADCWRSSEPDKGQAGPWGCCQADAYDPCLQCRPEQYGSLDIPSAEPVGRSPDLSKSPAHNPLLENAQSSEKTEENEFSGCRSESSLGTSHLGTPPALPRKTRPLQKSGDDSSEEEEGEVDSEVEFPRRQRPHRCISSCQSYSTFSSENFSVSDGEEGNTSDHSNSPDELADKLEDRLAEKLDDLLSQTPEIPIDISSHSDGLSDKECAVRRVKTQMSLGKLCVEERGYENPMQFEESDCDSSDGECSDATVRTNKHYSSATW
Description: as §1

various enzymes [18] = biological target: various enzymes (Homo sapiens, UniProt P33981); conditions: compound 1 uM
Description: as §1

various enzymes [19] = biological target: various enzymes (Homo sapiens, UniProt Q04759); conditions: compound 1 uM
Description: as §1

various enzymes [20] = biological target: various enzymes (Homo sapiens, UniProt P31751); conditions: compound 1 uM
Description: as §1

various enzymes [21] = biological target: various enzymes (Homo sapiens, UniProt Q13464); conditions: compound 1 uM
Description: as §1

various enzymes [22] = biological target: various enzymes (Homo sapiens, UniProt P54756); conditions: compound 1 uM
Description: as §1

various enzymes [23] = biological target: various enzymes (Homo sapiens, UniProt Q06187); conditions: compound 1 uM
Description: as §1

various enzymes [24] = biological target: various enzymes (Homo sapiens, UniProt P12931); conditions: compound 1 uM
Description: as §1

various enzymes [25] = biological target: various enzymes (Homo sapiens, UniProt Q15831); conditions: compound 1 uM
Description: as §1

various enzymes [26] = biological target: various enzymes (Homo sapiens, UniProt P00533, DEL752-759); conditions: compound 1 uM
Description: as §1

various enzymes (Homo sapiens, UniProt P53355), sequence (P53355 whole entry): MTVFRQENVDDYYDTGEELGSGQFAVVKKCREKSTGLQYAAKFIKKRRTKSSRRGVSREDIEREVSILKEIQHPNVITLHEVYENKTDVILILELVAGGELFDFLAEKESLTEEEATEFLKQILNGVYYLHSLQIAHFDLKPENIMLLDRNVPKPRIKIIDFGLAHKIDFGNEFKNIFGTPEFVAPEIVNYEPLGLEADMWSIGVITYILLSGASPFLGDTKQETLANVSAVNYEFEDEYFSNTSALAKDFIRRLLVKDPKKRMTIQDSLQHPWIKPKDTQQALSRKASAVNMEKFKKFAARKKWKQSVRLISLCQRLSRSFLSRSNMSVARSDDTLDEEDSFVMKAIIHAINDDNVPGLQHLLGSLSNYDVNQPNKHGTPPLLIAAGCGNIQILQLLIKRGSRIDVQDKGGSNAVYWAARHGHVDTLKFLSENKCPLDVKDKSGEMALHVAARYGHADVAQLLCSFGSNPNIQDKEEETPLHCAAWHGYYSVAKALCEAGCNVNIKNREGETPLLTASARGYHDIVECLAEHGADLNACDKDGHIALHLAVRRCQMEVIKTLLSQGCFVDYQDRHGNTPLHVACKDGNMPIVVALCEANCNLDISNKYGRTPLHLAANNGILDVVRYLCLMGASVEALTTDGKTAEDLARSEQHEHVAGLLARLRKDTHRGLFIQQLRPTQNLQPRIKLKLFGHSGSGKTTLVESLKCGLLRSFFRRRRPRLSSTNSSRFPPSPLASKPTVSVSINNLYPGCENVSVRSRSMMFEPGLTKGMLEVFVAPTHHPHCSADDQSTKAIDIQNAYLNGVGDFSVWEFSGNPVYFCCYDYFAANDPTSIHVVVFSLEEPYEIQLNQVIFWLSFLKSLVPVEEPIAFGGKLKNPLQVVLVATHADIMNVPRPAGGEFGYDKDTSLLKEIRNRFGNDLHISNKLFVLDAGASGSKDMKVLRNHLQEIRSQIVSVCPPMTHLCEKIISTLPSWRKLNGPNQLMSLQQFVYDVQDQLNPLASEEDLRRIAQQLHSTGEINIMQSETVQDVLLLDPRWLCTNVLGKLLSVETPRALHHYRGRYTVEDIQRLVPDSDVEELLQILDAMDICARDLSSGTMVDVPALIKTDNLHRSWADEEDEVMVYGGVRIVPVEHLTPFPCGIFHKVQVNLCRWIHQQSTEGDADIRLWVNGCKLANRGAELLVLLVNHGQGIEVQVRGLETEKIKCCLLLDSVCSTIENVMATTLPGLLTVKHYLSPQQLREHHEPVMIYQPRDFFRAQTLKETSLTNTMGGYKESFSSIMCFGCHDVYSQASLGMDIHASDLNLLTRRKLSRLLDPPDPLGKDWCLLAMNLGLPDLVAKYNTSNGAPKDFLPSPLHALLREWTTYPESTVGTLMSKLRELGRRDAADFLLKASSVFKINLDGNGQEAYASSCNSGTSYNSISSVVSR
various enzymes (Homo sapiens, UniProt Q96D53), sequence (Q96D53 whole entry): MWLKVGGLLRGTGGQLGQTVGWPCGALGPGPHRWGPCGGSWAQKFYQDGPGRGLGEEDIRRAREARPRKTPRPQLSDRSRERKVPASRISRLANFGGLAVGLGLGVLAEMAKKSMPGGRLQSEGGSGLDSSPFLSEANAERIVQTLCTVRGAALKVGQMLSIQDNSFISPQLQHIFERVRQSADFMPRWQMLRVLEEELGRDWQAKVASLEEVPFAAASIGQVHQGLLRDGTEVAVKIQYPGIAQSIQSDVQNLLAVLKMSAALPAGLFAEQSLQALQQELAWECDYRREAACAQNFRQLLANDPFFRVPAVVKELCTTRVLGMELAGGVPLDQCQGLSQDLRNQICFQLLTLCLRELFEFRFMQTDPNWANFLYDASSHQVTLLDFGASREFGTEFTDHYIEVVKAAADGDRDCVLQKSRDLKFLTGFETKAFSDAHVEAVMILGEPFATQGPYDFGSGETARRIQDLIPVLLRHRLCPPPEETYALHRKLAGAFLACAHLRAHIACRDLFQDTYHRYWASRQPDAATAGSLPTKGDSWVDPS
various enzymes (Homo sapiens, UniProt Q9UEE5), sequence (Q9UEE5 whole entry): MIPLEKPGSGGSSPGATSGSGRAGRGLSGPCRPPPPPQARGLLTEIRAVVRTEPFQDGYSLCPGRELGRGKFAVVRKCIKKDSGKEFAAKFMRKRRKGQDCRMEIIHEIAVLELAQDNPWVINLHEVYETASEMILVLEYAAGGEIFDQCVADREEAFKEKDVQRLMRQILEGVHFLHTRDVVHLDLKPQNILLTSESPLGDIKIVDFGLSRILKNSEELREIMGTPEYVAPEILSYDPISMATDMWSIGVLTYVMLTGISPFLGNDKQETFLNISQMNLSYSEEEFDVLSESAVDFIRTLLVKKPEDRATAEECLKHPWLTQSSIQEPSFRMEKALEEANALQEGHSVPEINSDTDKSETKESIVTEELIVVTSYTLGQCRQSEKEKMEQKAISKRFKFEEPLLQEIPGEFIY
various enzymes (Homo sapiens, UniProt P48736), sequence (P48736 whole entry): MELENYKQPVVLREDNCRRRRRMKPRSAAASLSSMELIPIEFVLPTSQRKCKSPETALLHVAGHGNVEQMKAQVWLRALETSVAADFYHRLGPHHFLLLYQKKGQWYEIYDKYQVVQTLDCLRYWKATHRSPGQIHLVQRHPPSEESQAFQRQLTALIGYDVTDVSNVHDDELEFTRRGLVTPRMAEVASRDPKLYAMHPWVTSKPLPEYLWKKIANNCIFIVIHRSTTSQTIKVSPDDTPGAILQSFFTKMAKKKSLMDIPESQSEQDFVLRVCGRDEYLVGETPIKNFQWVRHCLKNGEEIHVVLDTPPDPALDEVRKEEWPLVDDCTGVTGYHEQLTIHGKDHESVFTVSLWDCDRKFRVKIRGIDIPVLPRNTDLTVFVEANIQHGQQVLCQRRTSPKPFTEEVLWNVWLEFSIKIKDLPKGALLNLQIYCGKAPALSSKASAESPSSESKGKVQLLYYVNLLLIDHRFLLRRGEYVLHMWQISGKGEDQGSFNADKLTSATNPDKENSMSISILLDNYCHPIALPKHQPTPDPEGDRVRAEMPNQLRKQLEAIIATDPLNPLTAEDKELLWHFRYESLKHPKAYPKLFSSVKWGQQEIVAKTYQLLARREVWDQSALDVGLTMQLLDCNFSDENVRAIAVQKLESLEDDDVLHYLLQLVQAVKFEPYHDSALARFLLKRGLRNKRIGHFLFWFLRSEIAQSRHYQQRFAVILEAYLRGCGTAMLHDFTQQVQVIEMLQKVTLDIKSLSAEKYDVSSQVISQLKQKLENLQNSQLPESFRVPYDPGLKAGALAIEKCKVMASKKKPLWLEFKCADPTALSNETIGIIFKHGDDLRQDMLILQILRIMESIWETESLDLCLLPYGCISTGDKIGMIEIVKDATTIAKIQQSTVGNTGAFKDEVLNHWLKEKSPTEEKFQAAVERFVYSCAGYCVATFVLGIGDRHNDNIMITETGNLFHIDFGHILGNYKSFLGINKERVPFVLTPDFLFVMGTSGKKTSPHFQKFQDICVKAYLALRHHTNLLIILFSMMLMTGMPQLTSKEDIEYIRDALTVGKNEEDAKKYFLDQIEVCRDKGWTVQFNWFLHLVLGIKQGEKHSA
various enzymes (Homo sapiens, UniProt P37023), sequence (P37023 22-503): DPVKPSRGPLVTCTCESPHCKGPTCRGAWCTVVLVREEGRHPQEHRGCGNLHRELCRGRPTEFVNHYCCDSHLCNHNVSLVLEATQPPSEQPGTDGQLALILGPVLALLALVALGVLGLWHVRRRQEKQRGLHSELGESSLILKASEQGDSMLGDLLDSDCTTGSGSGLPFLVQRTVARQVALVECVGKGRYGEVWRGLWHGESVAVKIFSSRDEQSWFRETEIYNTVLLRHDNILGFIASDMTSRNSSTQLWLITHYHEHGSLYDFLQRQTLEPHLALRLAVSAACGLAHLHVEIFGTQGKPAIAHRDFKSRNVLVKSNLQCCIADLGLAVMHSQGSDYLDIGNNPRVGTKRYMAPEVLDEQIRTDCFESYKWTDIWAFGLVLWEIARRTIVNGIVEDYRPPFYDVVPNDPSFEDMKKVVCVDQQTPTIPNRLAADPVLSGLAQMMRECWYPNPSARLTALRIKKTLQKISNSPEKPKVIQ
various enzymes (Homo sapiens, UniProt O14965), sequence (O14965 whole entry): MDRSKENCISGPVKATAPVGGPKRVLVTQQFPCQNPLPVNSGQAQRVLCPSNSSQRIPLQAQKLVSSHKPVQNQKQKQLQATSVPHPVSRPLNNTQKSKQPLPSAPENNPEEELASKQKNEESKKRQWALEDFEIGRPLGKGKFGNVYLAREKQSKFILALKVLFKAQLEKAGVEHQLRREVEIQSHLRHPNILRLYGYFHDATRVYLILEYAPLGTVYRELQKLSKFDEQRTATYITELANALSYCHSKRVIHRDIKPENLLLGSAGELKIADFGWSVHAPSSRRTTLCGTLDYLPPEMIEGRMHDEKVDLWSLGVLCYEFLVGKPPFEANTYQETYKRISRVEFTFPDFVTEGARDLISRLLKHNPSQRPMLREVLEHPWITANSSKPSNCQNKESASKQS
various enzymes (Homo sapiens, UniProt Q13131), sequence (Q13131 whole entry): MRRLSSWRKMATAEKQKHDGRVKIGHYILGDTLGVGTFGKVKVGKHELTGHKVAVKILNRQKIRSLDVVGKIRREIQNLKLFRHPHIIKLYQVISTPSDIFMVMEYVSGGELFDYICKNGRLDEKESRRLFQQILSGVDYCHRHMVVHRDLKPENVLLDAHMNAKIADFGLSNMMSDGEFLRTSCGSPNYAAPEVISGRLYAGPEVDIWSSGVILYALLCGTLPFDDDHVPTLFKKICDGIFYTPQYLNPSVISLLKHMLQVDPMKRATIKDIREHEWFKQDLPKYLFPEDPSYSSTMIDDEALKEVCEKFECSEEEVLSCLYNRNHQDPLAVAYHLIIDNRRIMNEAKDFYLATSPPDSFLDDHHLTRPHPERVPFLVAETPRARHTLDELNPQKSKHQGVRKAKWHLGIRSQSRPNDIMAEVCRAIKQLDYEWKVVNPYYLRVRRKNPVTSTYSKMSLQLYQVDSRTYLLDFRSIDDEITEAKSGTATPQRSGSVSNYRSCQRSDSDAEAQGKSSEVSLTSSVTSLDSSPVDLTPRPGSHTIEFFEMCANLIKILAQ

| Compound | Ambit profiling: AURKA (various enzymes [1]) | Ambit profiling: ERBB3 (various enzymes [2]) | Ambit profiling: EPHA1 (various enzymes [3]) | Ambit profiling: SYK (various enzymes [4]) | Ambit profiling: AMPK-alpha1 (various enzymes [5]) | Ambit profiling: AURKB (various enzymes [6]) | Ambit profiling: YSK4 (various enzymes [7]) | Ambit profiling: PIK3CG (various enzymes [8]) | Ambit profiling: DRAK1 (various enzymes [9]) | Ambit profiling: LYN (various enzymes [10]) | Ambit profiling: ACVRL1 (various enzymes [12]) | Ambit profiling: ADCK4 (various enzymes [13]) | Ambit profiling: CAMK1D (various enzymes [14]) | Ambit profiling: EPHB3 (various enzymes [15]) | Ambit profiling: DAPK1 (various enzymes [16]) | Ambit profiling: LZK (various enzymes [17]) | Ambit profiling: TTK (various enzymes [18]) | Ambit profiling: PRKCQ (various enzymes [19]) | Ambit profiling: AKT2 (various enzymes [20]) | Ambit profiling: ROCK1 (various enzymes [21]) | further results |
| --- | --- | --- | --- | --- | --- | --- | --- | --- | --- | --- | --- | --- | --- | --- | --- | --- | --- | --- | --- | --- | --- |
| CC(C)N1Cc2nn(C)cc2-c2cnc3[nH]cc(c3c2)-c2cn(nc2C(F)(F)F)CCCC1=O [Compound 45, (Z)-5-isopropyl-31-methyl-13-(trifluoromethyl)-11H,21H,31H-5-aza-2(3,5)-pyrrolo[2,3-b]pyridina-1(4,1),3(4,3)-dipyrazolacyclononaphan-6-one] | 0.6 | 100 | 26 | 35 | 50 | 5.7 | 17 | 94 | 100 | 22 | 36 | 3.9 | 60 | 97 | 92 | 42 | 20 | 27 | 100 | 95 | Ambit profiling: ABL1(E255K)-phosphorylated (various enzymes [11]; compound 1 uM): 7.7; Ambit profiling: EPHA5 (various enzymes [22]): 92; Ambit profiling: BTK (various enzymes [23]): 55; Ambit profiling: SRC (various enzymes [24]): 25; Ambit profiling: LKB1 (various enzymes [25]): 100; Ambit profiling: EGFR(S752-I759del) (various enzymes [26]): 66 |
| COc1c2c(nn1C)CN(C(C)C)C(=O)CCCn1cc(c(C(F)(F)F)n1)-c1c[nH]c3ncc-2cc13 [Compound 50, (Z)-5-isopropyl-35-methoxy-31-methyl-13-(trifluoromethyl)-11H,21H,31H-5-aza-2(3,5)-pyrrolo[2,3-b]pyridina-1(4,1),3(4,3)-dipyrazolacyclononaphan-6-one] | 15 | 100 | 29 | 26 | 90 | 18 | 0.1 | 54 | 100 | 15 | 67 | 7.7 | 38 | 62 | 65 | 68 | 23 | 13 | 86 | 79 | Ambit profiling: ABL1(E255K)-phosphorylated (various enzymes [11]): 2; Ambit profiling: EPHA5 (various enzymes [22]): 67; Ambit profiling: BTK (various enzymes [23]): 56; Ambit profiling: SRC (various enzymes [24]): 13; Ambit profiling: LKB1 (various enzymes [25]): 33; Ambit profiling: EGFR(S752-I759del) (various enzymes [26]): 48 |
